From ChEMBL document CHEMBL2069165, “Synthesis and evaluation of substituted hexahydronaphthalenes as novel inhibitors of the Mcl-1/BimBH3 interaction” (Bioorg Med Chem Lett, 2012)

What was measured:
[1] = target: Induced myeloid leukemia cell differentiation protein Mcl-1/Bcl-2-like protein 11 (Homo sapiens, UniProt Q07820); assay: Inhibition of GST-Mcl-1/BH3 domain of Bim interaction after 1 hr by ELISA; format: protein assay
[2] = target: T1, Induced myeloid leukemia cell differentiation protein Mcl-1/Bcl-2-like protein 11 (Homo sapiens) (UniProt Q07820+O43521); assay: Inhibition of GST-Mcl-1/BH3 domain of Bim interaction at 25 uM after 1 hr by ELISA; format: protein assay
[3] = target: T1, Induced myeloid leukemia cell differentiation protein Mcl-1/Bcl-2-like protein 11 (Homo sapiens); assay: Inhibition of GST-Mcl-1/BH3 domain of Bim interaction in human MDA-MB-468 cells at 50 uM after 24 hrs by Western blotting relative to control; format: cell-based
[4] = target: T1, Induced myeloid leukemia cell differentiation protein Mcl-1/Bcl-2-like protein 11 (Homo sapiens); assay: Inhibition of GST-Mcl-1/BH3 domain of Bim interaction in human MDA-MB-468 cells at 25 uM after 24 hrs by Western blotting relative to control; format: cell-based
[5] = Solubility of the compound in human MDA-MB-468 cell culture medium at >100 uM; format: physicochemical
[6] = test system: MDA-MB-468; assay: Growth inhibition of human MDA-MB-468 cells at 100 uM after 72 to 120 hrs by MTT assay; format: functional; settings: read-out: GI

Sequence of Induced myeloid leukemia cell differentiation protein Mcl-1/Bcl-2-like protein 11 (Q07820 whole entry, the tested form may be a part): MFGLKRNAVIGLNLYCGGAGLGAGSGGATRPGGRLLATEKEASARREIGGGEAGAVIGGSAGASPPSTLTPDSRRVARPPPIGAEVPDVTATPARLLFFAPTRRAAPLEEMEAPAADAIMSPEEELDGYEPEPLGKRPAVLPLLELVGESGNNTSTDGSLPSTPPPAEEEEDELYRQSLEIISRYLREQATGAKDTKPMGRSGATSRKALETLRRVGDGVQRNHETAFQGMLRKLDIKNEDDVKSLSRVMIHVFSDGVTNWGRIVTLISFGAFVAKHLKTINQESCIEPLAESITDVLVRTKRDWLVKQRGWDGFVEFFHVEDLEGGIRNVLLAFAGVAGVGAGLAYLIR
Sequence of Induced myeloid leukemia cell differentiation protein Mcl-1/Bcl-2-like protein 11 (O43521 whole entry, further chain, the tested form may be a part): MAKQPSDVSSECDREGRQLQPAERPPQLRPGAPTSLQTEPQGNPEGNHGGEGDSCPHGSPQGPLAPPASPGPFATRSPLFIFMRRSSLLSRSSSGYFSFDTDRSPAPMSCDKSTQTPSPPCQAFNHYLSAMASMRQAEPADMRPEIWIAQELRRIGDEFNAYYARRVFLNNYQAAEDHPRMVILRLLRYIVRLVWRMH
T1 sequence (O43521 whole entry, looked up, the tested form may be a part): as the sequence (O43521 whole entry, further chain, the tested form may be a part) above
T1 sequence (Q07820 whole entry, looked up, the tested form may be a part): as the sequence (Q07820 whole entry, the tested form may be a part) above

inhibition [2] [%] | Compound | other results
64.9 | COCOC[C@@]12C=C[C@@H](C(C)(C)C(=O)OCc3ccccc3)C[C@@H]1C=C(C)C[C@@H]2OCc1ccccc1 | IC50 [1]: 13.1 µM
17.1 | C=C(C)CNC(=O)C(C)(C)[C@@H]1C=C[C@@]2(COCOC)[C@@H](O)CC(C)=C[C@H]2C1 | –
31.2 | C=C(C)COC(=O)C(C)(C)[C@@H]1C=C[C@@]2(COCOC)[C@@H](OCC(=C)C)CC(C)=C[C@H]2C1 | –
– | CC(C)Cc1cc(-c2ccc(-c3ccc(CCC(=O)O)cc3CC(C)C)cc2Cc2ccccc2)ccc1OCC(=O)O | inhibition [3]: 55.7%; inhibition [4]: 61.9%
25 | COC(=O)C(C)(C)[C@@H]1C=C[C@@]2(CO)[C@@H](O)CC(C)=C[C@H]2C1 | –
18.2 | COCOC[C@@]12C=C[C@@H](C(C)(C)C(=O)O)C[C@@H]1C=C(C)C[C@@H]2O | –
34.8 | COCOC[C@@]12C=C[C@@H](C(C)(C)C(=O)OC)C[C@@H]1C=C(C)C[C@@H]2OC(=O)NC1CCCCC1 | –
– | O=C(O)CCc1ccc(-c2ccc(-c3ccc(OCC(=O)O)cc3)cc2)cc1 | inhibition [3]: 107%; inhibition [4]: 96.9%
74.3 | C=C(C)CNC(=O)C(C)(C)C1C=CC2(COCOC)C(C=C(C)CC2OC(=O)Nc2cccc(Cl)c2)C1 (racemic) | solubility [5]: Insoluble; inhibition of growth at 100 µM [6]: 80%; IC50 [1]: 8.3 µM; inhibition [3]: 46.4%; inhibition [4]: 70.6%
64.4 | COCOC[C@@]12C=C[C@@H](C(C)(C)C(=O)NCc3ccc(Br)cc3)C[C@@H]1C=C(C)C[C@@H]2OC(=O)NC1CCCCC1 (relative stereo) | IC50 [1]: 17 µM
31.2 | C=C(C)CNC(=O)C(C)(C)[C@@H]1C=C[C@@]2(COCOC)[C@@H](OC(=O)NC(C)C)CC(C)=C[C@H]2C1 (relative stereo) | –
19.7 | C=C(C)CNC(=O)C(C)(C)[C@@H]1C=C[C@@]2(COCOC)[C@@H](OC(=O)NC3CCCC3)CC(C)=C[C@H]2C1 (relative stereo) | –
53.8 | C=C(C)CNC(=O)C(C)(C)[C@@H]1C=C[C@@]2(COCOC)[C@@H](OC(=O)NC3CCCCC3)CC(C)=C[C@H]2C1 (relative stereo) | –
40.3 | C=C(C)CNC(=O)C(C)(C)[C@@H]1C=C[C@@]2(COCOC)[C@@H](OC(=O)NCc3ccccc3)CC(C)=C[C@H]2C1 (relative stereo) | –
61.8 | C=C(C)CNC(=O)C(C)(C)[C@@H]1C=C[C@@]2(COCOC)[C@@H](OC(=O)Nc3ccccc3)CC(C)=C[C@H]2C1 (relative stereo) | –
26.5 | COCOC[C@@]12C=C[C@@H](C(C)(C)C(=O)N3CCOCC3)C[C@@H]1C=C(C)C[C@@H]2OC(=O)NC1CCCCC1 (relative stereo) | –
53.9 | COCOC[C@@]12C=C[C@@H](C(C)(C)C(=O)NCc3ccccc3)C[C@@H]1C=C(C)C[C@@H]2OC(=O)NC1CCCCC1 (relative stereo) | –
